Article PMC8151276, “An Integrated Approach toward NanoBRET Tracers for Analysis of GPCR Ligand Engagement” (Molecules, 2021)

Biological target: T1, MC2R (Homo sapiens, UniProt Q01718)
T1 construct: purchased Promega (in-house HiBiT-GPCR construct library, NanoBRET)
Assay: NanoBRET screen HiBiT-MC2R in HEK293
Format: binding
Experimental: Each tracer candidate was screened across the entire library of HiBiT-GPCR constructs using NanoBRET as the detection modality. As depicted in Figure 4A, the specificity of interactions was evaluated through decrease in BRET due to competitive displacement of a bound tracer by excess parental compound. Each tracer was analyzed for binding to each HiBiT-GPCR fusion in the absence and in the presence of competing parental compound. Briefly, HEK293 cells were transfected with HiBiT-GPCR constructs diluted into promoterless DNA to reduce expression and maximize translocation to the cell surface. Each tracer candidate was then screened at concentrations of 1 μM and 0.1 μM across cells expressing these fusions. Cells were treated for 1.5 h with tracer either alone or in the presence of 20 μM competing parental compound (i.e., control). BRET was measured upon addition of purified LgBiT and subsequent complementation with HiBiT genetically fused to a GPCR. The specificity of interactions was assessed through a decrease in BRET signal due to competitive displacement of the bound tracer. To further gauge the robustness of these interactions, the fold response over the control (i.e., BRETtracer/BRETcontrol) was calculated. We chose a 1.5-fold response, which translates to ≥7-fold signal over noise as the minimal threshold required to score an interaction as positive.
HiBiT-GPCR DNA constructs were diluted in 10 mM Tris pH 8 to a final concentration of 0.01 μg/μL, arrayed in 96-well plates and stored at −20 °C. For transfection, HEK293 cells were suspended in Opti-MEM (without phenol red) supplemented with 2% fetal bovine serum (Seradigm) and 100 units/mL penicillin–streptomycin (Gibco) at a final concentration of 220,000 cells/mL and dispensed into white 96-well plates at 90 μL/well. Subsequent transfections and screens were carried using an Agilent Bravo Automated Liquid Handling Platform. First, the 96-well HiBiT DNA arrays were diluted 25-fold in Opti-MEM (without serum or phenol red) to a final concentration of 0.0004 μg/μL and 20 μL of the diluted DNAs were transferred into new 96-well plates. Next, promoterless carrier DNA (1 μg/μL) was diluted 25-fold (0.04 μg/μL) and then dispensed into the diluted arrays at 20 μL/well. Following brief mixing, Viafect transfection reagent (Promega) diluted 16-fold into Opti-MEM was dispensed into the plates at 40 μL/well. After mixing by pipetting, plates were incubated for 10 min on the pipetting station deck. The DNA-transfection reagent complexes were then added to plates containing cells. To facilitate the screen, 10 μL of DNA-transfection reagent complexes were added in duplicates to the top 4 and bottom 4 rows, resulting in two identical 48-well arrays per plate. Plates with transfected cells were incubated for 18–20 h at 37 °C/5% CO2. A screen of each tracer across the entire library using two different concentrations requires duplicate plates of transfected cells. Depending on the number of tracers being screened, transfections can be scaled up using the same ratios. The next day, for each tracer, four 20× screening solutions in tracer dilution buffer (Promega) were prepared: two duplicates at final concentration of 20 μM and two duplicates at a final concentration of 2 μM. […] The four resulting solutions were diluted 4-fold in Opti-MEM without serum or phenol red to generate 5× solutions (5 µM and 0.5 µM tracer +/− 100 μM competing compound). To screen the library, a BioTek MultiFlo FX liquid dispenser was used to dispense 22.5 µL of tracer solution to the top 4 rows and 22.5 µL tracer + competing compound solution to the 4 bottom rows. Plates were briefly mixed on an orbital shaker and incubated for 1.5 h at room temperature. […] Plates were briefly mixed on an orbital shaker and incubated for 15 min to allow complementation.

T1 sequence (Q01718 whole entry): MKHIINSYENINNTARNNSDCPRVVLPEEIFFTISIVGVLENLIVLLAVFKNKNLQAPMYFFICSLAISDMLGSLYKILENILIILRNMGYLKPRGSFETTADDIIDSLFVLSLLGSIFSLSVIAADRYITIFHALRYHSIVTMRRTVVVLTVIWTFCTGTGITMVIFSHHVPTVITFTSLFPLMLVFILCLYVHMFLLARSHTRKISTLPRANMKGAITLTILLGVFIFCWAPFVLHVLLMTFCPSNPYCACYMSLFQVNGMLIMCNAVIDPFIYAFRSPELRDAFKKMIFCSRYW

Row | SMILES | NanoBRET Fold Response (MC2R, tracer 0.1μM) | NanoBRET Fold Response (MC2R, tracer 1μM) | further results
1 | CCOC(=O)c1cc(C#N)c(N2CCC(C(=O)NS(=O)(=O)Cc3ccccc3/C=C/C(=O)NCCNC(=O)CCc3ccc4n3[B-](F)(F)[N+]3=C(c5ccc[nH]5)C=CC3=C4)CC2)nc1C [AZD1283-1-NB590] | – | – | NanoBRET Fold Response (MC2R, 0.1μM): 0.94; NanoBRET Fold Response (MC2R, 1μM): 1.02
2 | N#CN=C(NCCCOc1cccc(CN2CCCCC2)c1)NCCNC(=O)CCOCCOCCOCCOCCNC(=O)CCc1ccc2n1[B-](F)(F)[N+]1=C(c3ccc[nH]3)C=CC1=C2 [Aminopotentidine-2-NB590] | 0.97 | 0.92 | –
3 | CN(C)CCC=C1c2ccccc2CCc2ccc(C(=O)NCCNC(=O)CCOCCOCCOCCOCCNC(=O)CCc3ccc4n3[B-](F)(F)[N+]3=C(c5ccc[nH]5)C=CC3=C4)cc21 [Amitriptyline-b-2-NB590] | – | – | NanoBRET Fold Response (tracer at 0.1μM): 1.00; NanoBRET Fold Response (tracer at 1μM): 1.02
4 | COc1ccc2c(n1)c(CCNC(C)=O)cn2CCNC(=O)CCc1ccc2n1[B-](F)(F)[N+]1=C(c3ccc[nH]3)C=CC1=C2 [Azamelatonin-1-NB590] | – | – | NanoBRET Fold Response (0.1μM tracer): 0.89; NanoBRET Fold Response (1μM tracer): 1.03
5 | COc1ccc2[nH]c(-c3ccc(CNC(=O)CCOCCOCCOCCOCCNC(=O)CCc4ccc5n4[B-](F)(F)[N+]4=C(c6ccc[nH]6)C=CC4=C5)cc3)c(CCNC(C)=O)c2n1 [AzomelatoninICO9-2-NB590] | – | – | NanoBRET Fold Response (0.1μM tracer): 0.93; NanoBRET Fold Response (1μM tracer): 1.16
6 | O=C(CCOCCOCCOCCOCCNC(=O)CCc1ccc2n1[B-](F)(F)[N+]1=C(c3ccc[nH]3)C=CC1=C2)NCCCN1CCN(C2=Nc3cc(Cl)ccc3Nc3ccccc32)CC1 [Clozapine-a-2-NB590] | – | – | NanoBRET Fold Response (MC2R, 0.1μM tracer): 0.97; NanoBRET Fold Response (MC2R, 1μM tracer): 0.97
7 | CN1CCN(C2=Nc3cc(Cl)ccc3Nc3ccc(CNC(=O)CCOCCOCCOCCOCCNC(=O)CCc4ccc5n4[B-](F)(F)[N+]4=C(c6ccc[nH]6)C=CC4=C5)cc32)CC1 [Clozapine-b-2-NB590] | – | – | NanoBRET Fold Response (MC2R, 0.1μM tracer): 1.02; NanoBRET Fold Response (MC2R, 1μM tracer): 1.00
8 | CN1CCN(C2=Nc3cc(Cl)ccc3N(CC(=O)NCCOCCOCCOCCOCCNC(=O)CCc3ccc4n3[B-](F)(F)[N+]3=C(c5ccc[nH]5)C=CC3=C4)c3ccccc32)CC1 [Clozapine-c-2-NB590] | – | – | NanoBRET Fold Response (MC2R, 0.1μM tracer): 0.99; NanoBRET Fold Response (MC2R, 1μM tracer): 1.11
9 | O=C(CCOCCOCCOCCOCCNC(=O)CCc1ccc2n1[B-](F)(F)[N+]1=C(c3ccc[nH]3)C=CC1=C2)NCCCN1CCN(C2=Nc3ccccc3Oc3ccc(Cl)cc32)CC1 [Loxapine-a-2-NB590] | 0.99 | 1.11 | –
10 | COc1ccccc1N1CCN(CCCCN2C(=O)c3ccc(CNC(=O)CCOCCOCCOCCOCCNC(=O)CCc4ccc5n4[B-](F)(F)[N+]4=C(c6ccc[nH]6)C=CC4=C5)cc3C2=O)CC1 [NAN-190-2-NB590] | 0.96 | – | –
11 | COc1ccccc1N1CCN(CCCCN2C(=O)c3ccc(CNC(=O)CCOCCNC(=O)c4ccc(CNC(=O)CCc5ccc6n5[B-](F)(F)[N+]5=C(c7ccc[nH]7)C=CC5=C6)cc4)cc3C2=O)CC1 [NAN-190-3-NB590] | 1.02 | 0.96 | –
12 | O=C(CCc1ccc2n1[B-](F)(F)[N+]1=C(c3ccc[nH]3)C=CC1=C2)NCc1ccc(C(=O)NCCOCCC(=O)N[C@@H]2CC[C@@]3(O)[C@H]4Cc5ccc(O)c6c5[C@@]3(CCN4CC3CC3)[C@H]2O6)cc1 [Naltrexone-3-NB590] | 0.75 | 1.15 | –
13 | Cc1cc2c(s1)Nc1ccccc1N=C2N1CCN(CCCNC(=O)CCOCCOCCOCCOCCNC(=O)CCc2ccc3n2[B-](F)(F)[N+]2=C(c4ccc[nH]4)C=CC2=C3)CC1 [Olanzapine-a-2-NB590] | 0.98 | 1.21 | –
14 | O=C(CCc1ccc2n1[B-](F)(F)[N+]1=C(c3ccc[nH]3)C=CC1=C2)NCc1ccc(C(=O)NCCOCCOCCNCC(O)COc2cccc3ccccc23)cc1 (stereo not drawn) [Propranolol-3-NB590] | – | – | NanoBRET Fold Response (MC2R, 1μM): 1.03
15 | O=C(CCc1ccc2n1[B-](F)(F)[N+]1=C(c3ccc[nH]3)C=CC1=C2)NCCOCCOCCNC(=O)OCCOCCN1CCN(C2=Nc3ccccc3Sc3ccccc32)CC1 [Quetiapine-a-2-NB590] | 0.98 | 0.95 | –
16 | Cc1nc2n(c(=O)c1CCN1CCC(c3noc4cc(F)ccc34)CC1)CCCC2OC(=O)NCCOCCOCCOCCOCCNC(=O)CCc1ccc2n1[B-](F)(F)[N+]1=C(c3ccc[nH]3)C=CC1=C2 (stereo not drawn) [Risperidone-2-NB590] | 1.04 | 1.06 | –
17 | CC(C)N(CC[C@H](c1ccccc1)c1cc(CCNC(=O)CCOCCOCCOCCOCCNC(=O)CCc2ccc3n2[B-](F)(F)[N+]2=C(c4ccc[nH]4)C=CC2=C3)ccc1O)C(C)C [Tolterodine-2-NB590] | 1.08 | 1.10 | –
18 | CC(C)N(CC[C@H](c1ccccc1)c1cc(CCNC(=O)c2ccc(CNC(=O)CCc3ccc4n3[B-](F)(F)[N+]3=C(c5ccc[nH]5)C=CC3=C4)cc2)ccc1O)C(C)C [Tolterodine-BZ-NB590] | 0.88 | 1.06 | –
19 | CCCn1c(=O)c2[nH]c(-c3ccc(OCC(=O)NCCNC(=O)CCOCCNC(=O)c4ccc(CNC(=O)CCc5ccc6n5[B-](F)(F)[N+]5=C(c7ccc[nH]7)C=CC5=C6)cc4)cc3)nc2n(CCC)c1=O [XAC-3-NB590] | 1.02 | 1.05 | –
